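Five concentrations, 48 hours, 96-well plates. GI50 is the concentration that inhibits growth by half. TGI is the concentration that stops growth completely.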
Tests used:
Assay in all cases: growth of human tumour cells (NCI), 48 h
[1] = tested on: CAKI-1 renal
[2] = tested on: NCI/ADR-RES ovarian
[3] = tested on: SN12C renal
[4] = tested on: SK-MEL-5 melanoma
[5] = tested on: PC-3 prostate
[6] = tested on: NCI-H23 lung
[7] = tested on: SK-OV-3 ovarian
[8] = tested on: MDA-MB-435
[9] = tested on: HOP-92 NSCLC
[10] = tested on: SK-MEL-2 melanoma
[11] = tested on: ACHN renal
[12] = tested on: BT-549 breast
[13] = tested on: SF-295 CNS
[14] = tested on: OVCAR-8 ovarian
[15] = tested on: 786-0 renal
[16] = tested on: OVCAR-3 ovarian
[17] = tested on: HCT-116 colon
[18] = tested on: SF-539 CNS
[19] = tested on: U251 CNS
[20] = tested on: DU-145 prostate
[21] = tested on: K-562 leukemia
[22] = tested on: CCRF-CEM leukemia
[23] = tested on: T-47D breast
[24] = tested on: UO-31 renal
[25] = tested on: M14 melanoma
[26] = tested on: MOLT-4 leukemia
[27] = tested on: HOP-62 NSCLC
[28] = tested on: UACC-257 melanoma
[29] = tested on: EKVX NSCLC
[30] = tested on: HCC-2998 colon
[31] = tested on: SW-620 colon
[32] = tested on: LOX IMVI melanoma
[33] = tested on: NCI-H460 lung
[34] = tested on: HCT-15 colon
[35] = tested on: NCI-H522 lung
[36] = tested on: KM12 colon
[37] = tested on: SF-268 CNS
[38] = tested on: RPMI-8226 leukemia
[39] = tested on: MCF7 breast
[40] = tested on: SNB-19 CNS
[41] = tested on: UACC-62 melanoma
[42] = tested on: MDA-MB-231 breast
[43] = tested on: HS 578T breast
[44] = tested on: A549 NSCLC

Compound: O=C1c2cc(Br)ccc2-c2c1c1ccccc1c(=O)n2CCCCl
- GI50 [1]: 2.84 µM
- TGI [1]: 20.6 µM
- GI50 [2]: 15.2 µM
- TGI [2]: 60.1 µM
- GI50 [3]: 14.1 µM
- TGI [3]: 55.9 µM
- GI50 [4]: 14.4 µM
- TGI [4]: 77.7 µM
- GI50 [5]: 18.3 µM
- TGI [5]: > 100 µM
- GI50 [6]: 13 µM
- TGI [6]: 40.9 µM
- GI50 [7]: 29.3 µM
- TGI [7]: > 100 µM
- GI50 [8]: 29.4 µM
- TGI [8]: > 100 µM
- GI50 [9]: 12.7 µM
- TGI [9]: 46.2 µM
- GI50 [10]: 76.8 µM
- TGI [10]: > 100 µM
- GI50 [11]: 9.19 µM
- TGI [11]: 30.8 µM
- GI50 [12]: 44.5 µM
- TGI [12]: > 100 µM
- GI50 [13]: 4.29 µM
- TGI [13]: 21.4 µM
- GI50 [14]: 15.9 µM
- TGI [14]: 65.8 µM
- GI50 [15]: 7.95 µM
- TGI [15]: 26.2 µM
- GI50 [16]: 0.964 µM
- TGI [16]: 7.91 µM
- GI50 [17]: 3.05 µM
- TGI [17]: 17.1 µM
- GI50 [18]: 25.1 µM
- TGI [18]: 68.5 µM
- GI50 [19]: 13.5 µM
- TGI [19]: 36.7 µM
- GI50 [20]: 64.7 µM
- TGI [20]: > 100 µM
- GI50 [21]: 34.8 µM
- TGI [21]: > 100 µM
- GI50 [22]: 8.51 µM
- TGI [22]: > 100 µM
- GI50 [23]: > 100 µM
- TGI [23]: > 100 µM
- GI50 [24]: 41 µM
- TGI [24]: > 100 µM
- GI50 [25]: 13.2 µM
- TGI [25]: > 100 µM
- GI50 [26]: 3.07 µM
- TGI [26]: 8.6 µM
- GI50 [27]: 3.34 µM
- TGI [27]: 17.8 µM
- GI50 [28]: 17.7 µM
- TGI [28]: 95.7 µM
- GI50 [29]: 94.3 µM
- TGI [29]: > 100 µM
- GI50 [30]: 14.1 µM
- TGI [30]: 71.5 µM
- GI50 [31]: 40.9 µM
- TGI [31]: > 100 µM
- GI50 [32]: 8.56 µM
- TGI [32]: 61.3 µM
- GI50 [33]: 7.54 µM
- TGI [33]: > 100 µM
- GI50 [34]: 26.8 µM
- TGI [34]: > 100 µM
- GI50 [35]: 39.8 µM
- TGI [35]: > 100 µM
- GI50 [36]: 16.6 µM
- TGI [36]: > 100 µM
- GI50 [37]: 41.2 µM
- TGI [37]: > 100 µM
- GI50 [38]: 41.6 µM
- TGI [38]: > 100 µM
- GI50 [39]: 1.61 µM
- TGI [39]: > 100 µM
- GI50 [40]: 72.2 µM
- TGI [40]: > 100 µM
- GI50 [41]: 5.65 µM
- TGI [41]: 22.3 µM
- GI50 [42]: 13.1 µM
- TGI [42]: 37.1 µM
- GI50 [43]: 27.4 µM
- TGI [43]: 90.7 µM
- GI50 [44]: 3.99 µM
- TGI [44]: 36.3 µM

— PubChem BioAssay (NCI)
